Data taken from patent US10174060B2, “Process for purifying monooctylin trichloride” (CHEMTURA CORPORATION, priority 2014, dated 2019).

Key:
[1] = cited from earlier work
[2] = Extraction of mono-n-octyltin trichloride from organic phase into aqueous aluminum chloride phase, dependence on chloride concentration (Example 4); assay type: physicochemical; conditions: stepwise dilution with deionized water
Procedure: A mixture was prepared, consisting by weight of 55.7% mono-n-octyltin trichloride, 10.7% di-n-butyl ether, 26.2% n-heptane, 7.3% AlCl3. 10 g of this mixture were transferred into a graduated glass cylinder.
Portions of deionized water were added stepwise to the system, and the volume changes of organic and aqueous phase were noted. Volume decrease of the organic phase indicates extraction of monooctyltin into the aqueous phase.

[3] = Extraction of mono-n-octyltin trichloride from organic phase into aqueous hydrochloric acid phase, dependence on chloride concentration (Example 5); assay type: physicochemical; conditions: stepwise dilution with deionized water
Procedure: 20.3 g of mono-n-octyltin trichloride, 3.9 g of di-n-butyl ether and 9.5 g of n-heptane were mixed to give of clear and homogeneous solution. 8.6 g (7.4 mL) of a 32% aqueous HCl solution were added. The mixture was stirred for ca. 10 minutes, and then transferred into a graduated glass cylinder. 2 phases appeared; they were allowed to settle.
Portions of deionized water were added stepwise to the system, and the volume changes of organic and aqueous phases were noted. Volume decrease of the organic phase indicates extraction of monooctyltin into the aqueous phase.

[4] = Extraction of mono-n-octyltin trichloride into aqueous aluminum chloride phase, dependence on temperature (Example 6); assay type: physicochemical; conditions: 30 minutes settling, 20 g mixture (18.5 mL) plus 8.4 g deionized water
Procedure: A mixture was prepared, consisting by weight of 55.7% mono-n-octyltin trichloride, 10.7% di-n-butyl ether, 26.2% n-heptane, 7.3% AlCl3. To 20 g of this mixture (having a volume of 18.5 mL), 8.4 g of deionized water were added under stirring, and the resulting mixture was placed into a graduated glass cylinder.
The temperature in the glass cylinder was adjusted to 20° C., and the phases were allowed to settle and separate for 30 minutes. The resulting volume of the organic phase was 8 mL.
Subsequently, the temperature in the glass cylinder was adjusted to 40° C., and the phases were allowed to settle and separate for 30 minutes. The resulting volume of the organic phase was 10 mL.
Subsequently, the temperature in the glass cylinder was adjusted to 60° C., and the phases were allowed to settle and separate for 30 minutes. The resulting volume of the organic phase was 14 mL.

[5] = Extraction of mono-n-octyltin trichloride with aqueous sodium chloride phase (Example 7); assay type: physicochemical; conditions: 16 mL organic mixture, 2.5 g saturated NaCl solution plus 5 g deionized water, 45° C.
Procedure: 10.15 g of mono-n-octyltin trichloride, 1.95 g of di-n-butyl ether and 4.75 g of n-heptane were mixed to give of clear and homogeneous solution. […] 2.5 g of a saturated NaCl solution was were added. The mixture was stirred for ca. 10 minutes, and then transferred into a graduated glass cylinder. Phase separation could not be observed, because a suspension had formed. When further 5 g of deionized water were added and the mixture was heated to 45° C., 2 phases appeared. When they had settled, it became visible, that the volume of the organic phase was reduced from 16 mL to ca. 8 mL, indicating extraction of monooctyltin trichloride into the aqueous phase. Upon cooling to room temperature, the lower aqueous phase solidified.

Compound	solubility in water [1]	aqueous aluminum chloride concentration at which extraction becomes particularly efficient [2] [%]	HCl concentration at which extraction becomes particularly efficient [3]	volume of the organic phase ([4]; 20° C.) [mL]	volume of the organic phase ([4]; 40° C.) [mL]	volume of the organic phase ([4]; 60° C.) [mL]	volume of the organic phase after extraction [5]
CCCCCCC[CH2][Sn]([Cl])([Cl])[CH2]CCCCCCC [dioctyltin dichloride]	practically insoluble						
CCCCCCC[CH2][Sn]([Cl])([Cl])[Cl] [mono-n-octyltin trichloride]	practically insoluble	≤ 17	approx. 16%	8	10	14	ca. 8 mL
CCC[CH2][Sn]([Cl])([Cl])[Cl] [monobutyltin trichloride]	miscible						
CCCCCCC[CH2][Sn]([Cl])([CH2]CCCCCCC)[CH2]CCCCCCC [trioctyltin chloride]	practically insoluble						
